Source: ChEMBL document CHEMBL4304775, “Identification and characterization of a novel chemotype for human TLR8 inhibitors” (Eur J Med Chem, 2019)
Active and inactive are the calls of the source. The rule behind the calls is not given here.

Tests used:
Type in all cases: cell-based
[1] = biological target: T1, Toll-like receptor 8 (Homo sapiens) (UniProt Q9NR97); experiment: Activation of human TLR8 expressed in HEK-Blue cells assessed as increase in NF-kappaB activation at 5 to 25 uM incubated for 24 hrs by quanti-blue SEAP assay
T1 sequence (whole entry): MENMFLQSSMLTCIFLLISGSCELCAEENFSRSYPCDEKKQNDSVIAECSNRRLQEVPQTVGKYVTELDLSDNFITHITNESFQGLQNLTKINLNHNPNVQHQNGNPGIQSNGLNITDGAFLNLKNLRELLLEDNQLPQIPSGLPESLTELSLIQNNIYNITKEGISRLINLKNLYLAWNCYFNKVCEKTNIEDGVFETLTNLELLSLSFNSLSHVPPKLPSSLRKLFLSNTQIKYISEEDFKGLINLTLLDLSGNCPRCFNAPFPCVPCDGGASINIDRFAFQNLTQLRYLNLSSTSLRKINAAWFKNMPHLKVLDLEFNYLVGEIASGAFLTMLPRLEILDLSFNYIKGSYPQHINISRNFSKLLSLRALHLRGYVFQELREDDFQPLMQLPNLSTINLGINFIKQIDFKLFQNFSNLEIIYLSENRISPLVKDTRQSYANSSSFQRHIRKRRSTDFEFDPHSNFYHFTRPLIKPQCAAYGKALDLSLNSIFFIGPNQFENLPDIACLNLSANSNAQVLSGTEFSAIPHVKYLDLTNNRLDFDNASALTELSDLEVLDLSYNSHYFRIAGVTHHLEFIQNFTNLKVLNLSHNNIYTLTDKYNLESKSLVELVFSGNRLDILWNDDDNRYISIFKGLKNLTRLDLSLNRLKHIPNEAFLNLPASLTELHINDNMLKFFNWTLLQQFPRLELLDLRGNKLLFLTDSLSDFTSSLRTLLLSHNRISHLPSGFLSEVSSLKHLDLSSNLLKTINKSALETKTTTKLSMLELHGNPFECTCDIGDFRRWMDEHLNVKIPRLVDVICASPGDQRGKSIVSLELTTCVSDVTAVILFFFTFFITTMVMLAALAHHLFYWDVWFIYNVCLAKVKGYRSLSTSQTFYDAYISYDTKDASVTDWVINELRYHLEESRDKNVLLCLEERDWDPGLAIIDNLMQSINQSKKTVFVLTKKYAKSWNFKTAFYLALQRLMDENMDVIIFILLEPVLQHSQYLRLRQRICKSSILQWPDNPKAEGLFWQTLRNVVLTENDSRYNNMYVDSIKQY

[2] = Cytotoxicity against human HEK-Blue cells transfected with hTLR8 at 25 to 50 uM after 24 hrs by MTT assay
[3] = biological target: T1, Toll-like receptor 8 (Homo sapiens); experiment: Antagonist activity at human TLR8 expressed in HEK-Blue cells assessed as reduction in CL075-induced NF-kappaB activation at 25 uM incubated for 1 hr followed by CL075-stimulation and measured after 24 hrs by quanti-blue SEAP assay relative to control
[4] = biological target: Toll-like receptor 2 (Homo sapiens) (UniProt O60603); experiment: Antagonist activity at TLR2 in human THP1 cells assessed as inhibition of Pam2CSK4/Pam3CSK4-induced IL-8 secretion preincubated for 1 hr followed by Pam2CSK4/Pam3CSK4 stimulation and measured after 24 hrs by ELISA; conditions: concentration not given here
Sequence of Toll-like receptor 2 (Homo sapiens) (O60603 whole entry): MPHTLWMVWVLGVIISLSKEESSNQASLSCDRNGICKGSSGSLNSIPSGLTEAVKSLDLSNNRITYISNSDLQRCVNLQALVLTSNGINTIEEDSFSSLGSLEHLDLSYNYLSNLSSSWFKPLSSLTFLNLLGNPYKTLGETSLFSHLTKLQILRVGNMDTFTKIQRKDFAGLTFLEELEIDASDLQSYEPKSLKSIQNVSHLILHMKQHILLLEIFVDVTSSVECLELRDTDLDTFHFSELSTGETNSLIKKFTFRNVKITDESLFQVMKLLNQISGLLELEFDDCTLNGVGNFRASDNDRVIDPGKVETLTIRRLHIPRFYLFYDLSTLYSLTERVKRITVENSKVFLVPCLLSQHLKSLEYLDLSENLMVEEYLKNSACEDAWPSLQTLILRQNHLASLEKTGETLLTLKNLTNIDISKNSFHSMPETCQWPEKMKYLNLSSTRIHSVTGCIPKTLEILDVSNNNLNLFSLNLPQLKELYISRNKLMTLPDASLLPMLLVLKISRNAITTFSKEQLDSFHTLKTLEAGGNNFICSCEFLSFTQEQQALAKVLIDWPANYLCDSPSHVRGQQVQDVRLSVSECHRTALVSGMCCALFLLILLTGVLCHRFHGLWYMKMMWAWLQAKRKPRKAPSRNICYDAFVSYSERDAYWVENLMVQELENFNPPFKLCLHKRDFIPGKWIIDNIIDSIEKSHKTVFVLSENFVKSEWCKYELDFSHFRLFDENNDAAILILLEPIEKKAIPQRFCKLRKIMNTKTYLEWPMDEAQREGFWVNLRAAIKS

| Compound | Activity [1] | inhibition [3] | inhibition [4] | Activity [2] |
| --- | --- | --- | --- | --- |
| CC(C)OC(=O)CSc1nc2ccc[nH]c-2n1 | inactive | – | – | Non-Toxic |
| CCn1cc(-c2cc(C(F)(F)F)nc(NCc3ccco3)n2)cn1 | inactive | – | – | Non-Toxic |
| Oc1nc2ccccc2n1Cc1ccccc1 | inactive | – | – | Non-Toxic |
| CCOC(=O)c1ccc(NC(=O)C(CC)Sc2nc3ccccc3[nH]2)cc1 (stereo not given) | inactive | < 50% | – | Non-Toxic |
| CCCCCCn1c(=O)[nH]c2ccccc21 | inactive | – | – | Non-Toxic |

The next lines start with results.

| Activity [1] | inhibition [3] | inhibition [4] | Compound | Activity [2] |
| --- | --- | --- | --- | --- |
| inactive | < 50% | 40% | Cc1[nH]c2ccccc2c1C(=O)C(=O)NCc1ccncc1 | Non-Toxic |
| inactive | – | – | C=CCNc1nc(-c2ccco2)cc(C(F)(F)F)n1 | Non-Toxic |
| inactive | – | – | CCCSc1nc2ccccc2[nH]1 | Non-Toxic |
| inactive | – | – | C=CCNc1nc(C)nc(N2NC(C)=CC2C)n1 (stereo not given) | Non-Toxic |
| inactive | – | – | COc1ccc(NC(=O)c2[nH]nc3ccccc23)cn1 | Non-Toxic |
| inactive | – | – | CCCCC(=O)c1c(C)[nH]c2ccccc12 | Non-Toxic |
